This experiment addresses Anti-alpha galactosyl IgG antibody. Kind of experiment: ELISA assay: streptavidin-captured biotin compound, binding of anti-alpha galactosyl IgG antibody. On the set-up: species or system human. Conditions: geometric mean with standard error in brackets; streptavidin plate, anti-alpha galactosyl IgG 0.5 μg/mL; read-out: Concentration at half maximal binding. Here is the method:
Compounds containing F (representing a carbohydrate molecule capable of binding to a human anti-alpha-galactosyl antibody) and L (as biotin) were assayed for binding at both ends of the compound using an enzyme-linked immunosorbent assay (ELISA). Streptavidin-coated plates captured biotin to the surface of the plate and the binding of anti-alpha galactosyl antibodies to the alpha-galactosyl moiety was reported by a secondary antibody labelled with HRP (Horse Radish Peroxidase).
Compounds were titrated 1.5 fold from a top dose of 50 nM in phosphate buffered saline (PBS) (Sigma D8537)+0.025% DMSO (Dimethyl Sulphoxide, Sigma D8418). Streptavidin immobilizer 96-well plates (nunc 436014) were coated with 100 μL of compound at room temperature for 2 hours shaking at 500 rpm. Plates were washed with 2×200 μL PBS-T (PBS with 0.05% Tween 20 (Sigma P9416)) and 1×200 μL PBS-T with a 5 minute incubation shaking at room temperature, prior to being blocked for 1 hour at room temperature with 1% Bovine Serum Albumin (BSA, Sigma A2153) in PBS-T. After removing the blocking buffer, 50 μL of Anti-alpha galactosyl IgG antibody (Anti-alpha-galactosyl antibody was purified from human IVIG (Gammagard) by affinity purification using an alpha-galactosyl-HSA (Human Serum Albumin) sepharose column by Rockland Immunochemicals Inc.) at 0.5 μg/mL in PBS-T+1% BSA and incubated shaking at room temperature for 1 hour.
Plates were washed 2×200 μL PBS-T and 3×200 μL PBS-T with a 5 minute incubation, shaking at room temperature before the addition of 50 μL 1:5000 Goat Anti-Human IgG-HRP (horseradish peroxidase) conjugate (Abcam ab97175). The plates were incubated shaking at room temperature for 1 hour before a final wash of 2×200 μL PBS-T and 3×200 μl PBS-T with a 5 minute incubation shaking at room temperature. 100 μL TMB buffer (3,3′,5,5′-tetramethylbenzidine, a chromogenic substrate for horseradish peroxidase) (Pierce 34021) was added to the plate and allowed to develop for 5-10 minutes before the samples were quenched with 50 μL 2M sulfuric acid (Sigma 258105). The absorbance was read at 450 nm on an Envision plate reader (Perkin Elmer). Results from wells (duplicate) were averaged and the 50% binding affinity calculated.
The concentration at which half-maximal binding is achieved is reported as a geometric mean with standard error in brackets. The number of independent experiments is also reported. In order to achieve a signal both ends of the molecule are required to bind (biotin to streptavidin and alpha-galactosyl to anti-alpha galactosyl antibodies) simultaneously.
In general terms: An ELISA detects its analyte on a solid surface through an enzyme-linked reagent.

`CC(=O)N[C@H]1[C@H](OCCCNC(=O)COc2cccc(C(=O)NCCNC(=O)CCCC[C@@H]3SC[C@@H]4NC(=O)N[C@@H]43)c2)O[C@H](CO)[C@@H](O[C@@H]2O[C@H](CO)[C@H](O)[C@H](O[C@H]3O[C@H](CO)[C@H](O)[C@H](O)[C@H]3O)[C@H]2O)[C@@H]1O` [Example 2, 3-(2-((3-(((2R,3R,4R,5S,6R)-3-Acetamido-5-(((2S,3R,4S,5S,6R)-3,5-dihydroxy-6-(hydroxymethyl)-4-(((2R,3R,4S,5R,6R)-3,4,5-trihydroxy-6-(hydroxymethyl)tetrahydro-2H-pyran-2-yl)oxy)tetrahydro-2H-pyran-2-yl)oxy)-4-hydroxy-6-(hydroxymethyl)tetrahydro-2H-pyran-2-yl)oxy)propyl)amino)-2-oxoethoxy)-N-(2-(5-((3aS,4S,6aR)-2-oxohexahydro-1H-thieno[3,4-d]imidazol-4-yl)pentanamido)ethyl)benzamide]: the EC50 was determined as 21.2 nM.

As for `CC(=O)N[C@H]1[C@H](OCCCNC(=O)COc2ccc(C(=O)NCCNC(=O)CCCC[C@@H]3SC[C@@H]4NC(=O)N[C@@H]43)cc2)O[C@H](CO)[C@@H](O[C@@H]2O[C@H](CO)[C@H](O)[C@H](O[C@H]3O[C@H](CO)[C@H](O)[C@H](O)[C@H]3O)[C@H]2O)[C@@H]1O` [Example 8, 4-(2-((3-(((2R,3R,4R,5S,6R)-3-Acetamido-5-(((2S,3R,4S,5S,6R)-3,5-dihydroxy-6-(hydroxymethyl)-4-(((2R,3R,4S,5R,6R)-3,4,5-trihydroxy-6-(hydroxymethyl)tetrahydro-2H-pyran-2-yl)oxy)tetrahydro-2H-pyran-2-yl)oxy)-4-hydroxy-6-(hydroxymethyl)tetrahydro-2H-pyran-2-yl)oxy)propyl)amino)-2-oxoethoxy)-N-(2-(5-((3aS,4S,6aR)-2-oxohexahydro-1H-thieno[3,4-d]imidazol-4-yl)pentanamido)ethyl)benzamide], the EC50 stood at 28.8 nM.

On to `CC(=O)NC1C(O)[C@H](O[C@@H]2OC(CO)[C@H](O)C(O[C@H]3OC(CO)[C@H](O)C(O)C3O)C2O)C(CO)O[C@H]1OCCCNC(=O)CCCNC(=O)COc1cc(OCC(=O)NCCCC(=O)NCCCO[C@@H]2OC(CO)[C@@H](O[C@@H]3OC(CO)[C@H](O)C(O[C@H]4OC(CO)[C@H](O)C(O)C4O)C3O)C(O)C2NC(C)=O)cc(-c2cc(OCC(=O)NCCCC(=O)NCCCO[C@@H]3OC(CO)[C@@H](O[C@@H]4OC(CO)[C@H](O)C(O[C@H]5OC(CO)[C@H](O)C(O)C5O)C4O)C(O)C3NC(C)=O)cc(C(=O)NCCNC(=O)CCCC[C@@H]3SC[C@@H]4NC(=O)N[C@@H]43)c2)c1` (some centres unmarked) [Example 60], for which the EC50 came out at 24.1 nM.

Turning to `CC(=O)N[C@H]1[C@H](OCCCNC(=O)COc2cc(OCC(=O)NCCCO[C@@H]3O[C@H](CO)[C@@H](O[C@@H]4O[C@H](CO)[C@H](O)[C@H](O[C@H]5O[C@H](CO)[C@H](O)[C@H](O)[C@H]5O)[C@H]4O)[C@H](O)[C@H]3NC(C)=O)cc(C(=O)NCCNC(=O)CCCC[C@@H]3SC[C@@H]4NC(=O)N[C@@H]43)c2)O[C@H](CO)[C@@H](O[C@@H]2O[C@H](CO)[C@H](O)[C@H](O[C@H]3O[C@H](CO)[C@H](O)[C@H](O)[C@H]3O)[C@H]2O)[C@@H]1O` [Example 5], the EC50 came out at 9.1 nM.

Regarding `CC(=O)N[C@H]1[C@H](OCCCNCc2cccc(C(=O)NCCNC(=O)CCCC[C@@H]3SC[C@@H]4NC(=O)N[C@@H]43)c2)O[C@H](CO)[C@@H](O[C@@H]2O[C@H](CO)[C@H](O)[C@H](O[C@H]3O[C@H](CO)[C@H](O)[C@H](O)[C@H]3O)[C@H]2O)[C@@H]1O` [Example 17, 3-(((3-(((2R,3R,4R,5S,6R)-3-Acetamido-5-(((2S,3R,4S,5S,6R)-3,5-dihydroxy-6-(hydroxymethyl)-4-(((2R,3R,4S,5R,6R)-3,4,5-trihydroxy-6-(hydroxymethyl)tetrahydro-2H-pyran-2-yl)oxy)tetrahydro-2H-pyran-2-yl)oxy)-4-hydroxy-6-(hydroxymethyl)tetrahydro-2H-pyran-2-yl)oxy)propyl)amino)methyl)-N-(2-(5-((3aS,4S,6aR)-2-oxohexahydro-1H-thieno[3,4-d]imidazol-4-yl)pentanamido)ethyl)benzamide], the EC50 is 17.7 nM.

These data come from US10953100B2, “Compounds and therapeutic uses thereof” (priority 2015, dated 2021).
